Assay [1] relates to tissue-engineered adipose sheets. In words: Lipolysis measurements (glycerol release from adipose tissue sheets). Format: cell-based, human. As for the experimental part: Lipolysis measurements. The lipolytic cell response of the adipose tissue sheets cultured for 27 days was assessed by measuring the amount of glycerol released into the incubation medium after treatment with 1 μM isoproterenol or its appropriate vehicle control. The tissues were previously incubated in serum-free medium for a minimum of 2 days to avoid interference with serum factors, and rinsed with serum-free medium before the assay. After 1, 2, 4 and 24 hours, the conditioned medium was immediately tested for the release of glycerol using an enzyme-coupled glycerol assay based on a colorimetric quantification (Sigma).

For assay [2], the system named is adipose-derived stromal cells. In words: Quantification of adipose differentiation by Oil Red O staining. It is filed as cell-based, human. As to conditions: fresh stromal cells not submitted to freezing, medium with vs without ascorbic acid. As for the experimental part:
Quantification of adipose differentiation. After 14 days of differentiation, independently of the time spent in culture before the time of adipogenic induction, Oil Red 0 (ORO) staining of the cytoplasmic neutral lipids of the droplets were performed according to a modification from [Kuri-Harcuch W et al. 1978; 75(12):6107-9, Ramirez-Zacarias J L et al. Histochemistry 1992; 97(6):493-7]. Briefly, cultures were rinsed, fixed with 10% buffered formalin, stained with 0.3% ORO in isopropanol and extracted with 4% Nonidet/isopropanol for quantification at 520 nm using a SpectraMax Plus™ spectrometer (Molecular Device) with SoftmaxPro™ Ver 4.7.1.

The source of these data is patent publication US20090169642A1, “RECONSTRUCTED LIVING ADIPOSE TISSUE” (priority 2005, published 2009).

Consider `CC(C)NCC(O)c1ccc(O)c(O)c1` (stereo not drawn) [Isoproterenol], for which the “time of peak in glycerol release post-stimulation” value in assay [1] (1 μm isoproterenol, LA adipose tissue sheet cells in P3, adipocytes differentiated for 20 days, relative to basal levels) was 2 h. In addition, the “lipolytic activation (hydrolysis of triglycerides into fatty acids and glycerol)” value in assay [1] (isoproterenol 1 μM, adipose constructs from lipoaspirated fat in P3, 20 days of in vitro differentiation) is recorded as “induced the hydrolysis of triglycerides”.
As to `O=C1O[C@H]([C@@H](O)CO)C(O)=C1O` [ascorbic acid], the “adipocyte differentiation (ORO staining)” value in assay [2] is given as “can promote adipocyte differentiation”.
